This note sets out measurements from the NIST ThermoML archive (doi:10.1021/je050488p).

Numbers after ± are expanded uncertainties.

The conditions of the data set: Crystal; visual observation.

For `O=P1(CO)Oc2ccccc2-c2ccccc21` (stereo unspecified) [6-(hydroxymethyl)dibenzo[c,e][1,2]oxaphosphinine 6-oxide], the Normal melting temperature worked out at 158.50 ± 1.5 °C.
